Measured values reported in patent US10407467B2, “Polymyxin derivatives and their use in combination therapy together with different antibiotics” (priority 2013, dated 2019).
Counter-ions that a name gives are not always drawn. Numbered stars: 1 amine (or outer) side, 2 acyl side, 3 side chain; on linkers, the order of the positions; unused ones are H or OH. Bridge positions count the residues as written; N and C are the ends. Square brackets hold non-standard residues; d marks the D form. Peptide text beside a SMILES is read from it. * marks the point of attachment. ξ: configuration not given here. Cyclohexanoyl(cis-4-NH2) = N[C@H]1CC[C@@H](C(=O)*)CC1; GABA(4S-Me) = C[C@@H](CCC(=O)[*:2])N[*:1]; X17 = CN1CCN(c2ccc(C(=O)*)cc2)CC1; NMeGABA = CN(CCCC(=O)[*:2])[*:1]; X8 = N[C@@H]1CC[C@H](C(=O)*)C1; Thr(3ξ) = CC(O)[C@H](N)C(=O)O; Propanoyl(3-OH) = O=C(CCO)*; Dab = NCC[C@H](N)C(=O)O; Inp = O=C(O)C1CCNCC1

Key:
Format in all cases: cell-based
Escherichia coli [1] = assay: MIC, compound in combination with a second agent (broth microdilution); conditions: 1:1 (wt:wt) combination with Rifampicin
Summary of the method: (§1)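 Compound and second agent (e.g. rifampicin) were combined 1:1 w/w, compound weighed as its TFA or sulphate salt. Inoculum was a direct colony suspension from 18-24 hour Mueller-Hinton agar at 0.5 McFarland. MIC is the total drug concentration; lower of duplicates reported, modal value when tested repeatedly.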

Klebsiella pneumoniae [2] = assay: as above; conditions: 1:1 (wt:wt) combination with Rifampicin; for MIC K. pneumoniae NCTC 13438: strain NCTC 13438; for MIC K. pneumoniae ATCC 4352: strain ATCC 4352
Summary of the method: as §1

Acinetobacter baumannii = assay: as above; conditions: 1:1 (wt:wt) combination with Rifampicin, MIC = total drug concentration; for MIC A. baumannii NCTC 13424: strain NCTC 13424
Summary of the method: as §1

Pseudomonas aeruginosa [3] = assay: as above; conditions: 1:1 (wt:wt) combination with Rifampicin; for MIC P. aeruginosa ATCC CRM-9027: strain ATCC CRM-9027
Summary of the method: as §1

Escherichia coli [4] = assay: MIC, sole activity (no second agent); conditions: in the absence of Rifampicin; strain ATCC25922
Summary of the method: (§2)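 Inoculum: direct colony suspension (18-24 h MH agar), 0.5 McFarland. Medium: cation-adjusted MHB. Up to 4 strains/species; reported relative to Polymyxin B.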

Klebsiella pneumoniae [5] = assay: MIC, sole activity (no second agent); conditions: in the absence of Rifampicin; strain ATCC 4352
Summary of the method: as §2

Pseudomonas aeruginosa [6] = assay: MIC, sole activity (no second agent); conditions: in the absence of Rifampicin; strain ATCC27853
Summary of the method: as §2

[7] = MIC = total drug concentration, strain ATCC25922
[8] = MIC = total drug concentration, strain ATCC-BAA-2146
[9] = MIC = total drug concentration, strain CCUG-59348
[10] = MIC = total drug concentration, strain CCUG 59626
[11] = MIC = total drug concentration, strain ATCC 27853
[12] = MIC is total drug concentration

| Compound | MIC E. coli ATCC25922 (Escherichia coli [1]; [7]) | MIC K. pneumoniae ATCC-BAA-2146 (Klebsiella pneumoniae [2]; [8]) | MIC K. pneumoniae CCUG-59348 (Klebsiella pneumoniae [2]; [9]) | MIC K. pneumoniae NCTC 13438 (Klebsiella pneumoniae [2]; MIC = total drug concentration) | MIC A. baumannii NCTC 13424 (Acinetobacter baumannii) | MIC P. aeruginosa CCUG 59626 (Pseudomonas aeruginosa [3]; [10]) | MIC E. coli ATCC25922 (Escherichia coli [4]) | MIC K. pneumoniae ATCC 4352 (Klebsiella pneumoniae [5]) | MIC P. aeruginosa ATCC 27853 (Pseudomonas aeruginosa [6]) | MIC P. aeruginosa ATCC 27853 (Pseudomonas aeruginosa [3]; [11]) | further results |
| --- | --- | --- | --- | --- | --- | --- | --- | --- | --- | --- | --- |
| CC(C)C[C@@H]1NC(=O)[C@@H](CC(C)C)NC(=O)[C@H](CCN)NC(=O)[C@@H](NC(=O)[C@H](CCN)NC(=O)[C@@H](NC(=O)C(O)C2CCCCC2)C(C)O)CCNC(=O)[C@H](C(C)O)NC(=O)[C@H](CCN)NC(=O)[C@H](CCN)NC1=O (single isomer, unassigned; isomer 2) [Example 32, 2(RS)-(2-Hydroxy-2-cyclohexyl)ethanoyl polymyxin E nonapeptide, TFA salt. Isomer 2] | 0.5 micrograms/mL | 1 micrograms/mL | 2 micrograms/mL | 1 micrograms/mL | – | – | – | – | – | – | MIC E. coli NCTC9001 (Escherichia coli [1]; MIC = total drug concentration, strain NCTC9001): 1 micrograms/mL |
| CNCCCC(=O)N[C@H](C(=O)N[C@@H](CCN)C(=O)N[C@H]1CCNC(=O)[C@H](C(C)O)NC(=O)[C@H](CCN)NC(=O)[C@H](CCN)NC(=O)[C@H](CC(C)C)NC(=O)[C@@H](Cc2ccccc2)NC(=O)[C@H](CCN)NC1=O)C(C)O (stereo partly drawn) [Example 16, 4-(N-methylamino)-butanoyl polymyxin B nonapeptide] (NMeGABA-[Thr(3ξ)][Dab][Dab][Dab][dF]L[Dab][Dab][Thr(3ξ)]; lactam 3-C) | – | – | – | 0.5 micrograms/mL | 0.125 micrograms/mL | 0.125 micrograms/mL | 0.5 micrograms/mL | 0.5 micrograms/mL | 0.25 micrograms/mL | – | MIC P. aeruginosa ATCC CRM-9027 (Pseudomonas aeruginosa [3]; MIC = total drug concentration): 0.125 micrograms/mL |
| CC(C)C[C@@H]1NC(=O)[C@@H](Cc2ccccc2)NC(=O)[C@H](CCN)NC(=O)[C@@H](NC(=O)[C@H](CCN)NC(=O)[C@@H](NC(=O)CC[C@H](C)N)C(C)O)CCNC(=O)[C@H](C(C)O)NC(=O)[C@H](CCN)NC(=O)[C@H](CCN)NC1=O (stereo partly drawn) [Example 24, 4S-aminopentanoyl polymyxin B nonapeptide] ({GABA(4S-Me)}-[Thr(3ξ)][Dab][Dab][Dab][dF]L[Dab][Dab][Thr(3ξ)]; lactam 3-C) | – | 0.5 micrograms/mL | 8 micrograms/mL | – | 0.5 micrograms/mL | 0.25 micrograms/mL | >32 micrograms/mL | 0.5 micrograms/mL | 0.25 micrograms/mL | – | – |
| CC(C)C[C@@H]1NC(=O)[C@@H](Cc2ccccc2)NC(=O)[C@H](CCN)NC(=O)[C@@H](NC(=O)[C@H](CCN)NC(=O)[C@@H](NC(=O)[C@H](CCN)NC(=O)C2CCNCC2)C(C)O)CCNC(=O)[C@H](C(C)O)NC(=O)[C@H](CCN)NC(=O)[C@H](CCN)NC1=O (stereo partly drawn) [Example 53, Piperidin-4-yl carbonyl-polymyxin B decapeptide, trifluoroacetate salt] (H-[Inp][Dab][Thr(3ξ)][Dab][Dab][Dab][dF]L[Dab][Dab][Thr(3ξ)]; lactam 5-C) | 0.125 micrograms/mL | 1 micrograms/mL | 4 micrograms/mL | – | – | ≤0.06 micrograms/mL | – | – | – | ≤0.06 micrograms/mL | MIC K. pneumoniae ATCC 4352 (Klebsiella pneumoniae [2]; MIC = total drug concentration): ≤0.06 micrograms/mL |
| CC(C)C[C@@H]1NC(=O)[C@@H](Cc2ccccc2)NC(=O)[C@H](CCN)NC(=O)[C@@H](NC(=O)[C@H](CCN)NC(=O)[C@@H](NC(=O)[C@H](CCCCN)NC(=O)C2CCNCC2)C(C)O)CCNC(=O)[C@H](C(C)O)NC(=O)[C@H](CCN)NC(=O)[C@H](CCN)NC1=O (stereo partly drawn) [Example 54, Piperidin-4-yl carbonyl-L-Lys-polymyxin B nonapeptide, trifluoroacetate salt] (H-[Inp]K[Thr(3ξ)][Dab][Dab][Dab][dF]L[Dab][Dab][Thr(3ξ)]; lactam 5-C) | 0.25 micrograms/mL | 1 micrograms/mL | 4 micrograms/mL | – | – | ≤0.06 micrograms/mL | – | – | – | ≤0.06 micrograms/mL | MIC K. pneumoniae ATCC 4352 (Klebsiella pneumoniae [2]; MIC = total drug concentration): 0.125 micrograms/mL |
| CC(C)C[C@@H]1NC(=O)[C@@H](Cc2ccccc2)NC(=O)[C@H](CCN)NC(=O)[C@@H](NC(=O)[C@H](CCN)NC(=O)[C@@H](NC(=O)c2ccc(N3CCN(C)CC3)cc2)C(C)O)CCNC(=O)[C@H](C(C)O)NC(=O)[C@H](CCN)NC(=O)[C@H](CCN)NC1=O (stereo partly drawn) [Example 55, 4-(4-Methyl-piperazin-1-yl) benzoyl polymyxin B nonapeptide] (X17-[Thr(3ξ)][Dab][Dab][Dab][dF]L[Dab][Dab][Thr(3ξ)]; lactam 3-C) | 0.125 micrograms/mL | 1 micrograms/mL | 4 micrograms/mL | – | – | 0.25 micrograms/mL | – | – | – | 0.25 micrograms/mL | MIC E. coli ATCC25922 (Escherichia coli [1]; [12]): 0.125 micrograms/mL; MIC K. pneumoniae ATCC-BAA-2146 (Klebsiella pneumoniae [2]; [12]): 1 micrograms/mL; MIC K. pneumoniae CCUG-59348 (Klebsiella pneumoniae [2]; [12]): 4 micrograms/mL; MIC P. aeruginosa ATCC 27853 (Pseudomonas aeruginosa [3]; [12]): 0.25 micrograms/mL; MIC P. aeruginosa CCUG 59626 (Pseudomonas aeruginosa [3]; [12]): 0.25 micrograms/mL |

The next lines start with results.

| MIC E. coli ATCC25922 (Escherichia coli [1]; [7]) | MIC K. pneumoniae ATCC-BAA-2146 (Klebsiella pneumoniae [2]; [8]) | MIC K. pneumoniae CCUG-59348 (Klebsiella pneumoniae [2]; [9]) | MIC K. pneumoniae NCTC 13438 (Klebsiella pneumoniae [2]; MIC = total drug concentration) | MIC A. baumannii NCTC 13424 (Acinetobacter baumannii) | MIC P. aeruginosa CCUG 59626 (Pseudomonas aeruginosa [3]; [10]) | MIC E. coli ATCC25922 (Escherichia coli [4]) | MIC K. pneumoniae ATCC 4352 (Klebsiella pneumoniae [5]) | MIC P. aeruginosa ATCC 27853 (Pseudomonas aeruginosa [6]) | MIC P. aeruginosa ATCC 27853 (Pseudomonas aeruginosa [3]; [11]) | Compound | further results |
| --- | --- | --- | --- | --- | --- | --- | --- | --- | --- | --- | --- |
| – | 0.25 micrograms/mL | 4 micrograms/mL | 0.25 micrograms/mL | <0.06 micrograms/mL | 0.125 micrograms/mL | 2 micrograms/mL | 0.125 micrograms/mL | 0.125 micrograms/mL | – | CC(C)C[C@@H]1NC(=O)[C@@H](Cc2ccccc2)NC(=O)[C@H](CCN)NC(=O)[C@@H](NC(=O)[C@H](CCN)NC(=O)[C@@H](NC(=O)[C@H]2CC[C@@H](N)CC2)C(C)O)CCNC(=O)[C@H](C(C)O)NC(=O)[C@H](CCN)NC(=O)[C@H](CCN)NC1=O (stereo partly drawn) [Example 20, Cis-4-aminocyclohexane carbonyl polymyxin B nonapeptide] ({Cyclohexanoyl(cis-4-NH2)}-[Thr(3ξ)][Dab][Dab][Dab][dF]L[Dab][Dab][Thr(3ξ)]; lactam 3-C) | MIC A. baumannii CCUG57249 (Acinetobacter baumannii; strain CCUG57249): ≤0.06 micrograms/mL; MIC P. aeruginosa ATCC-47 (Pseudomonas aeruginosa [3]; MIC = total drug concentration, strain ATCC-47): 0.125 micrograms/mL |
| – | 2 micrograms/mL | 8 micrograms/mL | – | 0.5 micrograms/mL | 0.25 micrograms/mL | >32 micrograms/mL | 4 micrograms/mL | 0.5 micrograms/mL | – | CC(C)C[C@@H]1NC(=O)[C@@H](Cc2ccccc2)NC(=O)[C@H](CCN)NC(=O)[C@@H](NC(=O)[C@H](CCN)NC(=O)[C@@H](NC(=O)CCO)C(C)O)CCNC(=O)[C@H](C(C)O)NC(=O)[C@H](CCN)NC(=O)[C@H](CCN)NC1=O (stereo partly drawn) [Example 26, 3-Hydroxypropanoyl polymyxinB nonapeptide] ({Propanoyl(3-OH)}-[Thr(3ξ)][Dab][Dab][Dab][dF]L[Dab][Dab][Thr(3ξ)]; lactam 3-C) | – |
| <0.06 micrograms/mL | – | – | – | – | – | – | – | – | – | CC(C)C[C@@H]1NC(=O)[C@@H](Cc2ccccc2)NC(=O)[C@H](CCN)NC(=O)[C@@H](NC(=O)[C@H](CCN)NC(=O)[C@@H](NC(=O)[C@H]2CC[C@@H](N)C2)C(C)O)CCNC(=O)[C@H](C(C)O)NC(=O)[C@H](CCN)NC(=O)[C@H](CCN)NC1=O (stereo partly drawn) [Example 34B, (1S,3R)-3- Aminocyclopentane carbonyl polymyxin B nonapeptide] (X8-[Thr(3ξ)][Dab][Dab][Dab][dF]L[Dab][Dab][Thr(3ξ)]; lactam 3-C) | MIC P. aeruginosa ATCC CRM-9027 (Pseudomonas aeruginosa [3]; MIC = total drug concentration): 0.25 micrograms/mL |
